Assays:
Assay in all cases: relative viability (nuclei count vs DMSO), 5 days (fraction); higher = more cells survive
[1] = compound: Cn1cc(-c2cnn3c(N)c(Br)c([C@@H]4CCCNC4)nc23)cn1 + Nc1nc2[nH]cc(CCc3ccc(C(=O)N[C@@H](CCC(=O)O)C(=O)O)cc3)c2c(=O)[nH]1 [Pemetrexed] (partner 0.2 µM)
How it was run: (§1)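 Relative viability is defined as nuclei in treated wells over nuclei in vehicle wells. Duplicate plates were run and medians reported. Lung cancer cell lines in 1536-well plates were dosed by pin tool one day after seeding, with one drug or with a fixed anchor-drug dose plus five library-drug doses (not always all listed) in √10 steps, and nuclei were counted after 5 days.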

[2] = compound: Cn1cc(-c2cnn3c(N)c(Br)c([C@@H]4CCCNC4)nc23)cn1 + O=C(CCCCCCC(=O)Nc1ccccc1)NO [Vorinostat] (partner 1 µM)
How it was run: as §1

[3] = compound: Cn1cc(-c2cnn3c(N)c(Br)c([C@@H]4CCCNC4)nc23)cn1 + CC1(C)CCC(c2ccc(Cl)cc2)=C(CN2CCN(c3ccc(C(=O)NS(=O)(=O)c4ccc(N[C@H](CCN5CCOCC5)CSc5ccccc5)c(S(=O)(=O)C(F)(F)F)c4)cc3)CC2)C1 [Navitoclax] (partner 0.5 µM)
How it was run: as §1

[4] = compound: Cn1cc(-c2cnn3c(N)c(Br)c([C@@H]4CCCNC4)nc23)cn1 + C[C@]1(O)C[C@@H](c2nc(-c3ccc4ccc(-c5ccccc5)nc4c3)c3c(N)nccn32)C1 [Linsitinib] (partner 1 µM)
How it was run: as §1

Cell Line	relative viability ([1]; first compound 0.05 µM)	relative viability ([1]; first compound 0.1581 µM)	relative viability ([1]; first compound 0.5 µM)	relative viability ([1]; first compound 1.581 µM)	relative viability ([1]; first compound 5 µM)	relative viability ([2]; first compound 0.05 µM)	relative viability ([2]; first compound 0.1581 µM)	relative viability ([2]; first compound 0.5 µM)	relative viability ([2]; first compound 1.581 µM)	relative viability ([2]; first compound 5 µM)	relative viability ([3]; first compound 0.05 µM)	relative viability ([3]; first compound 0.1581 µM)	relative viability ([3]; first compound 0.5 µM)	relative viability ([3]; first compound 1.581 µM)	relative viability ([3]; first compound 5 µM)	relative viability ([4]; first compound 0.05 µM)	relative viability ([4]; first compound 0.1581 µM)	relative viability ([4]; first compound 0.5 µM)	relative viability ([4]; first compound 1.581 µM)	relative viability ([4]; first compound 5 µM)
HCC-366	0.166	0.108	0.128	0.0814	0.0667	0.333	0.402	0.337	0.301	0.211	1.11	1.07	1.09	0.918	0.771	0.71	0.739	0.483	0.521	0.18
HCC-827	0.269	0.202	0.249	0.228	0.187	0.741	0.929	1.02	0.917	0.797	1.03	1.04	1.04	1.01	0.99	0.934	0.958	0.947	1.05	0.953
HOP-62	0.309	0.252	0.307	0.22	0.203	0.698	0.775	0.645	0.386	0.209	0.985	1.18	1.16	0.97	0.479	1.17	1.08	0.693	0.873	0.956
IA-LM						1.11	1.12	1.11	0.672	0.64	0.858	0.974	0.609	0.412	0.252	0.666	0.867	0.653	0.544	0.37
LC-2-ad	0.293	0.295	0.265	0.25	0.239	0.683	0.808	0.662	0.76	0.735	0.394	0.606	0.395	0.423	0.429	0.907	0.891	0.821	0.884	0.86
LCLC-97TM1	0.172	0.185	0.189	0.171	0.126	0.67	0.95	0.936	0.582	0.433	0.462	0.439	0.325	0.343	0.46	0.194	0.2	0.184	0.21	0.176
LCLC-103H	0.539	0.463	0.482	0.428	0.298	0.738	0.879	0.824	0.615	0.597						0.978	1.18	1.15	1.06	0.915
LK-2	0.271	0.309	0.271	0.278	0.124	0.276	0.351	0.236	0.249	0.162	0.915	0.711	0.699	0.627	0.555	0.548	0.446	0.51	0.369	0.317
LOU-NH91	0.398	0.289	0.254	0.25	0.64	0.849	0.911	0.908	0.863	0.703	0.732	0.666	0.644	0.67	0.474	0.963	0.868	0.929	0.899	0.734
NCI-H358	0.177	0.164	0.162	0.166	0.129	0.748	0.732	0.422	0.455	0.302						0.7	0.626	0.608	0.581	0.523
NCI-H522	0.938	0.913	1.02	1.01	0.865	0.845	0.936	0.871	0.842	0.797										
NCI-H650	0.893	0.93	0.92	0.919	0.63	0.412	0.514	0.384	0.447	0.337						0.808	0.775	0.846	0.795	0.657
NCI-H661	0.98	0.635	0.667	0.754	0.588	0.829	0.82	0.833	0.736	0.63						0.557	0.592	0.579	0.479	0.314
NCI-H727						1.04	1.17	1.33	1.15	1.13	0.4	0.43	0.333	0.463	0.212	0.189	0.261	0.235	0.289	0.236
NCI-H1563	0.754	0.647	0.782	0.753	0.532											1.13	1.27	1.26	1.17	0.848
NCI-H1648	0.686	0.673	0.68	0.715	0.668	0.449	0.296	0.313	0.327	0.463										
NCI-H1650	0.368	0.288	0.292	0.239	0.224	0.594	0.524	0.471	0.595	0.336	1.27	1.23	1.25	0.845	0.67					
NCI-H1703											1.08	0.441	0.309	0.147	0.122	0.72	0.586	0.539	0.336	0.119
NCI-H1792	0.847	1.19	0.795		0.55						0.35	0.674	0.322	0.366	0.677	0.709	0.531	0.347	0.327	0.274
NCI-H2170	0.268	0.258	0.26	0.256	0.223	0.826	0.882	0.659	0.796	0.989	0.584	0.554	0.453	0.527	0.713					
NCI-H2342	0.867	0.846	0.762	0.788	0.778	0.636	0.8	0.824	0.68	0.712										
SW 900	0.449	0.468	0.493	0.295	0.305	0.47	0.362	0.648	0.369	0.181										
